Common to all, as to test: Isothermal Titration Calorimetry (ITC)
Details in all cases: pH 8; 25 °C
(ITC needs no label: the signal is the heat of the interaction.)

One assay concerns the target T1, Leucine--tRNA ligase (Candida albicans (strain WO-1), UniProt C4YL05).
T1 sequence (C4YL05 whole entry): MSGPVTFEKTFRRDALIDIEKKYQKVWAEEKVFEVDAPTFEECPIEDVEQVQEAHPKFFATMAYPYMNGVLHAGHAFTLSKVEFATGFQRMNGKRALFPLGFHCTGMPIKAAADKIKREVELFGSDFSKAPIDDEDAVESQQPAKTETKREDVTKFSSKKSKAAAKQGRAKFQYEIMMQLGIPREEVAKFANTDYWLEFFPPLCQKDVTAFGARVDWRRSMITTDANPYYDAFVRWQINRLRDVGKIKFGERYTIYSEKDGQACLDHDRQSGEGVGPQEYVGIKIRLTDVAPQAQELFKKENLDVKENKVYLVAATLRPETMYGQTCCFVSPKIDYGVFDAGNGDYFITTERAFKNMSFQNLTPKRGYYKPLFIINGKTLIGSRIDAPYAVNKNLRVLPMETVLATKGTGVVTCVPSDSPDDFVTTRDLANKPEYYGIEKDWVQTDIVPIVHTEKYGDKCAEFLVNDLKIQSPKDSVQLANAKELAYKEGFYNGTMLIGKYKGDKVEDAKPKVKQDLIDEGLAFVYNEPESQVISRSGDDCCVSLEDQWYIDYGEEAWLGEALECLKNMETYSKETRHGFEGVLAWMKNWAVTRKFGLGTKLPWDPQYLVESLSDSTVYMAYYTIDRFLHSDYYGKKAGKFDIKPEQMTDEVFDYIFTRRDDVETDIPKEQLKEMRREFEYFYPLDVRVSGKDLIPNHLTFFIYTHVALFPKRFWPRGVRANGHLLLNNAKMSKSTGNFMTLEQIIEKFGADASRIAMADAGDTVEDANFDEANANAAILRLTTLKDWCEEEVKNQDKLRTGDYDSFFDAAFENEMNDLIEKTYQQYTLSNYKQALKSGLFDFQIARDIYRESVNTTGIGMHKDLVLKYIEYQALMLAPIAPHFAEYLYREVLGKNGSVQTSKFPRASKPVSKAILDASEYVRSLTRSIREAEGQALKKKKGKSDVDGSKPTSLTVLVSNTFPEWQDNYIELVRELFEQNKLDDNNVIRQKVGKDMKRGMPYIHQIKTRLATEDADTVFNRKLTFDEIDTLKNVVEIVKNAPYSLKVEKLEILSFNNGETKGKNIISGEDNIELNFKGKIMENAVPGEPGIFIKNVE
The procedure: (§1) ITC was performed using LeuRS CP1 domain wild-type, K510E mutant, or K510A mutant against AN2690-AMP at 25 °C by an ITC200 system (MicroCal, GE Healthcare). Wildtype protein and mutants were dialyzed against the titration buffer (50 mM HEPES-KOH, 30 mM KCl and 30 mM MgCl2, pH 8.0). Compound AN2690 and AMP were also prepared in the same buffer. A 60 μM protein solution was in the presence of 10 mM AMP in the calorimetric cell and titrated using 26 stepwise injections of 1.5 μL each with the compound AN2690 plus AMP. AN2690 solutions were placed in the syringe at 0.7 to 3 mM (depending on the expected affinity) along with 10 mM AMP. The heat generated after each ligand injection was measured base on the integral of the calorimetric signal. The resultant binding isotherms were analyzed by a nonlinear least-squares fit of the experimental data to a single site model using Microcal Origin 7.0 software. Experiments were duplicated and variability estimated to be 5% in the binding

Assay [1] concerns the target Leucine--tRNA ligase [A132I,E138V,K510A,I952T] (Candida albicans (strain WO-1), UniProt A0A1D8PS12, A132I/E138V/I952T/K510A). The procedure: as §1
For assay [2], the target named is Leucine--tRNA ligase [A132I,E138V,K510E,I952T] (Candida albicans (strain WO-1), UniProt A0A1D8PS12, A132I/E138V/I952T/K510E). On the procedure:
as §1

SMILES strings stand for the structures.

Kd data for one compound are collected here from BindingDB's records for doi:10.1021/acschembio.5b00291 (Ujf-Embl-Cnrs, 2015).

Chain of Leucine--tRNA ligase [A132I,E138V,K510A,I952T] (A0A1D8PS12 whole entry A132I/E138V/K510A/I952T): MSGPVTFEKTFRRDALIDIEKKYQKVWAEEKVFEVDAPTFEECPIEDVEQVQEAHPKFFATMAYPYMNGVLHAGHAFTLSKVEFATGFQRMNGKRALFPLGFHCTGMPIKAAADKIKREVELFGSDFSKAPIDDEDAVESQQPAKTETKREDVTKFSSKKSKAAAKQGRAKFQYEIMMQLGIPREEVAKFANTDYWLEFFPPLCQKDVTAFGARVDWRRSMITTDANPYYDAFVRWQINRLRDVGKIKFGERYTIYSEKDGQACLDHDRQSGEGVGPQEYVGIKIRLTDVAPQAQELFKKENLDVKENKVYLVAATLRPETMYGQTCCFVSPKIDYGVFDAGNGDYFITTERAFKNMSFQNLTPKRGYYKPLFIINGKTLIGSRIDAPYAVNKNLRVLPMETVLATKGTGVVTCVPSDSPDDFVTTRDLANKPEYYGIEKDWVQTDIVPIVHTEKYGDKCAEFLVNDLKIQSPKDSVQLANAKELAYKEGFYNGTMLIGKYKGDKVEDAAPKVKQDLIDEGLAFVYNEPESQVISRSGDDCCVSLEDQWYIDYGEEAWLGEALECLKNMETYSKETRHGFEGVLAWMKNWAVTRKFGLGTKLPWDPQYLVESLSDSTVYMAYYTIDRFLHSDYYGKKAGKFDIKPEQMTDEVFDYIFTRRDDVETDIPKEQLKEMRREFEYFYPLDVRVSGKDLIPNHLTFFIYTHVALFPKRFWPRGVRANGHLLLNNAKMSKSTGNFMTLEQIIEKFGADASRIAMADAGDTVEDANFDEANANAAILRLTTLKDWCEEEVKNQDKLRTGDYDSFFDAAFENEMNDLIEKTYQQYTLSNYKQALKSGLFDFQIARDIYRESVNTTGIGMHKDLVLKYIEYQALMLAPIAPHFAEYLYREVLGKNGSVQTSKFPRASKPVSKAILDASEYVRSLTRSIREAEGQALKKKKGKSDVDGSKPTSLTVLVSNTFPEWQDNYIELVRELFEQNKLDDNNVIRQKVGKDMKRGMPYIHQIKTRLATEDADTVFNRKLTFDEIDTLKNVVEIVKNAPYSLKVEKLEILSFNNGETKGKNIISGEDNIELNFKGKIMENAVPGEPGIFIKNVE
Chain of Leucine--tRNA ligase [A132I,E138V,K510E,I952T] (A0A1D8PS12 whole entry A132I/E138V/K510E/I952T): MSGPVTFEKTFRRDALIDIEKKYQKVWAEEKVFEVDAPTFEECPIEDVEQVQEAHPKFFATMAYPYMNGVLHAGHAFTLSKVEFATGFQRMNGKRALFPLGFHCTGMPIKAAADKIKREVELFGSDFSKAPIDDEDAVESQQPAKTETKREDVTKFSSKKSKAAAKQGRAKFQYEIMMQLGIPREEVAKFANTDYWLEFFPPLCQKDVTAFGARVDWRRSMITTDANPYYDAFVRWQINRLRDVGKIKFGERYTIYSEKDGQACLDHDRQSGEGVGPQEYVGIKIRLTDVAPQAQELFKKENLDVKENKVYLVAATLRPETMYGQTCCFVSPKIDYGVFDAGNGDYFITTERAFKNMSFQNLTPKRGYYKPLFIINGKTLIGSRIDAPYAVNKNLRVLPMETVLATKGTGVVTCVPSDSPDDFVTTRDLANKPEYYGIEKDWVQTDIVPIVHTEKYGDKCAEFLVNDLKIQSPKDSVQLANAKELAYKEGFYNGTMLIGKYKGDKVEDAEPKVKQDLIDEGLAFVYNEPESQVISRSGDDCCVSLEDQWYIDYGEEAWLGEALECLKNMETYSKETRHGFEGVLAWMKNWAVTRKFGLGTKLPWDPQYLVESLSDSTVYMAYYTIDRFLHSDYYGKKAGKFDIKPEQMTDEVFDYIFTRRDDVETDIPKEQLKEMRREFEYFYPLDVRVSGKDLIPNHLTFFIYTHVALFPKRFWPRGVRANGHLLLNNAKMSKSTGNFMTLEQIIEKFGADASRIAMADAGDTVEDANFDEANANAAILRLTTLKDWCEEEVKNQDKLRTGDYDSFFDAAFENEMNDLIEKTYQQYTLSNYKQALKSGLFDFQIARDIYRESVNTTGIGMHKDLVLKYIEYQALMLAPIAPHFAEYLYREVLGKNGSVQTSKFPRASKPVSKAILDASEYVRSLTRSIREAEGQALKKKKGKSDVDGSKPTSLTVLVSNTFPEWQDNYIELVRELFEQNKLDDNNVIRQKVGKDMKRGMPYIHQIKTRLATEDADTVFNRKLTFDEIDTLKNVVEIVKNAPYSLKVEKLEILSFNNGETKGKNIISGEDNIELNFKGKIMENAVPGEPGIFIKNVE

Regarding `CC[C@H]1O[C@@H](n2cnc3c(N)ncnc32)[C@H]2O[B-]3(OCc4cc(F)ccc43)OC12` (stereo partly drawn) [AN2690-AMP], the results for the Kd (at Leucine--tRNA ligase; in assay [1]; in assay [2]) were 0.7 µM, 46 µM and 21 µM, respectively.
